Counter-ions that a name gives are not always drawn.

Usually EC50 stands for the concentration giving half of the maximal effect.

For the first assay, the target named is human activated kallikrein enzyme (Homo sapiens, UniProt P03952). Briefly: Inhibition of human activated plasma kallikrein, fluorogenic PFR-AMC substrate, 500 pM enzyme format. The settings on record: 500 pM activated kallikrein; 300 μM PFR-AMC; 30 min preincubation; 10 min room temperature; pH 7.5; read-out: Primary Dose Response Assay: Average EC50. Type of assay: biochemical. In a few lines: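 Using fluorogenic PFR-AMC at 300 μM, cleavage by 500 pM human activated kallikrein ran 10 min at room temperature, read at 460 nm emission (380 nm excitation). Enzyme and compounds were first preincubated 30 min in 20 mM Tris pH 7.5, 150 mM NaCl, 1 mM EDTA, 0.1% PEG-400, 0.1% Triton X-100.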
Sequence of human activated kallikrein enzyme (P03952 391-638 limits assumed): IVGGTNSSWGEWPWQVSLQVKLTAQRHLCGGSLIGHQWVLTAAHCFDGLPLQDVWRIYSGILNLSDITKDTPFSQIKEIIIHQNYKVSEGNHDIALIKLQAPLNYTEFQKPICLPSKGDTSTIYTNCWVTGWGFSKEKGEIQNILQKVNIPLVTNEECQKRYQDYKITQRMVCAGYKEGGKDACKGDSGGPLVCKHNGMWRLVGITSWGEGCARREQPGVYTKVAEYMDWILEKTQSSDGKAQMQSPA
Sequence of human activated kallikrein enzyme (P03952 20-390 partner limits assumed): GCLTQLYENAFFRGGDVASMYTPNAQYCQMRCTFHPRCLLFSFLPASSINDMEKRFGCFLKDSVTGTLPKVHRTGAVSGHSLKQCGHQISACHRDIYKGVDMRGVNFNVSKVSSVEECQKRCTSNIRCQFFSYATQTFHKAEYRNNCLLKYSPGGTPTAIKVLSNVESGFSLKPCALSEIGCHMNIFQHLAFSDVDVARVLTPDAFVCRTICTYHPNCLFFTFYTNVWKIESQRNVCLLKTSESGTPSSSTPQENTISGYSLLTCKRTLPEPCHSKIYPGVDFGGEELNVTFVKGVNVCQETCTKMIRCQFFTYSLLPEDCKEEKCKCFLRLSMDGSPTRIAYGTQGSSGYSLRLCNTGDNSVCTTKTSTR
In the case of `Cc1cc2c(N)nccc2c(C)c1CNc1cc(OCc2ccc(Cc3ccn(C)n3)cc2)ncn1` [Example 297, 5,7-dimethyl-6-(((6-((4-((1-methyl-1H-pyrazol-3-yl)methyl)benzyl)oxy)pyrimidin-4-yl)amino)methyl)isoquinolin-1-amine, formic acid salt], the half-maximal effective concentration (EC50) fell in the range of 0.001 to 0.01 µM.
Take `Cc1cc2c(N)nccc2c(C)c1CNc1cc(OCc2cn3ccccc3n2)cnn1` [Example 411, 6-(((5-(imidazo[1,2-a]pyridin-2-ylmethoxy)pyridazin-3-yl)amino)methyl)-5,7-dimethylisoquinolin-1-amine]: the 50% effective concentration (EC50) lay within 0.01 to 0.1 µM.
On the same count and under the same terms, to `Cc1cc2c(N)nccc2c(C)c1CNC(=O)c1cnn(Cc2cn3cccc(C)c3n2)c1` [Example 54, N-((1-amino-5,7-dimethylisoquinolin-6-yl)methyl)-1-((8-methylimidazo[1,2-a]pyridin-2-yl)methyl)-1H-pyrazole-4-carboxamide] belongs 0.001 to 0.01 µM.
With `Cc1cc2c(N)nccc2c(C)c1CNc1cc(OCc2ccc(CN3CCCCC3=O)cc2)cnn1` [Example 433, 1-(4-(((6-(((1-amino-5,7-dimethylisoquinolin-6-yl)methyl)amino)pyridazin-4-yl)oxy)methyl)benzyl)piperidin-2-one], the half-maximal effective concentration (EC50) is under 0.001 µM.
Same read-out and setting: to `Cc1c(CNC(=O)c2cnn(Cc3ccccc3)c2)c(C2(C)CC2)cc2c(N)nccc12` [Example 175, N-((1-amino-5-methy1-7-(1-methylcyclopropyl)isoquinolin-6-y1)methyl)-1-benzyl-1H-pyrazole-4-carboxamide] belongs 0.01 to 0.1 µM.
The same measure, in the same setting: in the case of `Cc1cc2c(N)nccc2c(C)c1CNc1cc(OCc2nc3ccc(C4CC4)cn3n2)nc(CCC(=O)O)n1` [Example 295, 3-(4-(((1-amino-5,7-dimethylisoquinolin-6-yl)methyl)amino)-6-((6-cyclopropyl-[1,2,4]triazolo[1,5-a]pyridin-2-yl)methoxy)pyrimidin-2-yl)propanoic acid] it was 0.001 to 0.01 µM; in that of `Cc1cc2c(N)nccc2c(C)c1CNC(=O)c1ccnc(C(=O)c2cn3cc(C4CC4)ccc3n2)c1` [Example 189, N-((1-amino-5,7-dimethylisoquinolin-6-y1)methyl)-2-(6-cyclopropylimidazo[1,2-a]pyridine-2-carbonyl)isonicotinamide], 0.1 to 1 µM.
Still for that read-out and setting: to `Cc1cc2c(N)nccc2c(C)c1CNC(=O)c1cnn(Cc2ccccc2F)c1` [Example 38, N-((1-amino-5,7-dimethylisoquinolin-6-yl)methyl)-1-(2-fluorobenzyl)-1H-pyrazole-4-carboxamide] belongs over 1 µM.
On to `Cc1cc2c(N)nccc2c(C)c1CNC(=O)c1cnn(Cc2cccc(Cl)c2)c1` [Example 98, N-((1-amino-5,7-dimethylisoquinolin-6-yl)methyl)-1-(3-chlorobenzyl)-1H-pyrazole-4-carboxamide], for which the EC50 was in the range of 0.01 to 0.1 µM.
Same read-out and setting: in the case of `Cc1cc2c(N)nccc2c(C)c1CNc1nccc2cn(Cc3cn4cc(C5CC5)ccc4n3)nc12` [Example 271, 6-(((2-((6-cyclopropylimidazo[1,2-a]pyridin-2-yl)methyl)-2H-pyrazolo[3,4-c]pyridin-7-yl)amino)methyl)-5,7-dimethylisoquinolin-1-amine] it was under 0.001 µM; in that of `Cc1cc2c(N)nccc2c(C)c1CNc1cc(NCc2ccc(CO)cc2)ncn1` [Example I-461, (4-(((6-(((1-amino-5,7-dimethylisoquinolin-6-yl)methyl)amino)pyrimidin-4-yl)amino)methyl)phenyl)methanol], 0.001 to 0.01 µM.
On to `Cc1cc2c(N)nccc2c(C)c1CNC(=O)c1cnn(Cc2ccc(Cc3ncccn3)cc2)c1` [Example 168, N-((1-amino-5,7-dimethylisoquinolin-6-yl)methyl)-1-(4-(pyrimidin-2-ylmethyl)benzyl)-1H-pyrazole-4-carboxamide], for which the EC50 was in the range of 0.001 to 0.01 µM.
As for `Cc1ccc2nc(Cn3cc(C(=O)NCc4c(C)cc5c(N(C(=O)OCc6ccccc6)C(=O)OCc6ccccc6)nccc5c4C)cn3)cn2c1` [Example 4, benzyl ((benzyloxy)carbonyl)(5,7-dimethyl-6-((1-((6-methylimidazo[1,2-a]pyridin-2-yl)methyl)-1H-pyrazole-4-carboxamido)methyl)isoquinolin-1-yl)carbamate], the half-maximal effective concentration (EC50) was over 1 µM.
As for `Cc1cc2c(N)nccc2c(C)c1CNc1cc(N(Cc2cn3nc(C4CC4)ccc3n2)CC(F)(F)F)ncn1` [Example 516, N^4-((1-amino-5,7-dimethylisoquinolin-6-yl)methyl)-N^6-((6-cyclopropylimidazo[1,2-b]pyridazin-2-yl)methyl)-N6-(2,2,2-trifluoroethyl)pyrimidine-4,6-diamine], the EC50 lay in the range of 0.01 to 0.1 µM.
Consider `Cc1cc2c(N)nccc2c(C)c1CNc1cc(N2C[C@@H](O[Si](C)(C)C(C)(C)C)C[C@@H]2c2cn3cc(C4CC4)ccc3n2)ncn1` [Example 512, 6-(((6-((2R,4S)-4-((tert-butyldimethylsilyl)oxy)-2-(6-cyclopropylimidazo[1,2-a]pyridin-2-yl)pyrrolidin-1-yl)pyrimidin-4-yl)amino)methyl)-5,7-dimethylisoquinolin-1-amine], for which the EC50 was in the range of 0.001 to 0.01 µM.
Same read-out and setting: in the case of `Cc1cc2c(N)nccc2c(C)c1CNc1cn2c(Cc3ccc4ccccc4c3)ncc2cn1` [Example 523, 5,7-dimethyl-6-(((3-(naphthalen-2-ylmethyl)imidazo[1,5-a]pyrazin-6-yl)amino)methyl)isoquinolin-1-amine] it was over 1 µM.
Consider `Cc1cc2c(N)nccc2c(C)c1CNc1cc(NCc2ccccc2)ncn1` [Example 341, N^4-((1-amino-5,7-dimethylisoquinolin-6-yl)methyl)-N^6-benzylpyrimidine-4,6-diamine], for which the EC50 is 0.1 to 1 µM.
Turning to `CC(=O)NC1(c2ccc(Cn3cc(C(=O)NCc4c(C)cc5c(N)nccc5c4C)cn3)cc2)CC1` [Example 19, 1-(4-(1-acetamidocyclopropyl)benzyl)-N-((1-amino-5,7-dimethylisoquinolin-6-yl)methyl)-1H-pyrazole-4-carboxamide], the EC50 was under 0.001 µM.
The same measure, in the same setting: in the case of `Cc1cc2c(N)nccc2c(C)c1CNC(=O)c1cnn(Cc2ccc(Oc3cc(Cl)cn(C)c3=O)cc2)c1` [Example 17, N-((1-amino-5,7-dimethylisoquinolin-6-yl)methyl)-1-(4-((5-chloro-1-methyl-2-oxo-1,2-dihydropyridin-3-yl)oxy)benzyl)-1H-pyrazole-4-carboxamide] it was under 0.001 µM; in that of `Cc1cc2c(N)nccc2c(C)c1CNC(=O)c1cn(C(C)c2ccc3ncc(Cl)cc3c2)nn1` (centres unmarked) [Example 200, N-((1-amino-5,7-dimethylisoquinolin-6-yl)methyl)-1-(1-(3-chloroquinolin-6-yl)ethyl)-1H-1,2,3-triazole-4-carboxamide], 0.001 to 0.01 µM.
On the same count and under the same terms, in the case of `Cc1cc2c(N)nccc2c(C)c1CNC(=O)c1cnn(Cc2cc3cccc(C)c3nc2Cl)c1` [Example 73, N-((1-amino-5,7-dimethylisoquinolin-6-yl)methyl)-1-((2-chloro-8-methylquinolin-3-yl)methyl)-1H-pyrazole-4-carboxamide] it was 0.001 to 0.01 µM; in that of `Cc1cc2c(N)nccc2c(C)c1CNc1cc(NCc2cn3ccccc3n2)ncn1` [Example 321, N^4-((1-amino-5,7-dimethylisoquinolin-6-yl)methyl)-N^6-(imidazo[1,2-a]pyridin-2-ylmethyl)pyrimidine-4,6-diamine], 0.001 to 0.01 µM; in that of `Cc1cc2c(N)nccc2c(C)c1CNc1cc(NCc2cn3cc(C(F)(F)F)ccc3n2)ncn1` [Example 329, N^4-((1-amino-5,7-dimethylisoquinolin-6-yl)methyl)-N^6-((6-(trifluoromethyl)imidazo[1,2-a]pyridin-2-yl)methyl)pyrimidine-4,6-diamine], under 0.001 µM.
The same measure, in the same setting: in the case of `Cc1cc2c(N)nccc2c(C)c1CNc1cc(NCc2ccc(OCc3ccccn3)cc2)ncn1` [Example 349, N^4-((1-amino-5,7-dimethylisoquinolin-6-yl)methyl)-N^6-(4-(pyridin-2-ylmethoxy)benzyl)pyrimidine-4,6-diamine, formic acid salt] it was 0.001 to 0.01 µM; in that of `Cc1cc2c(N)nccc2c(C)c1CNC(=O)c1cnn(CC(=O)Nc2ccccc2)c1` [Example 154, N-((1-amino-5,7-dimethylisoquinolin-6-yl)methyl)-1-(2-oxo-2-(phenylamino)ethyl)-1H-pyrazole-4-carboxamide], 0.1 to 1 µM.
`Cc1cc2c(N)nccc2c(C)c1CNC(=O)c1cnn(Cc2ccc(CC(=O)N(C)CC3CC3)cc2)c1` [Example 204, N-((1-amino-5,7-dimethylisoquinolin-6-yl)methyl)-1-(4-(2-((cyclopropylmethyl)(methyl)amino)-2-oxoethyl)benzyl)-1H-pyrazole-4-carboxamide]: the EC50 lay in the range of 0.001 to 0.01 µM.
Still for that read-out and setting: to `Cc1cc2c(N)nccc2c(C)c1CNC(=O)c1cnn(Cc2ccc3c(c2)nnn3C)c1` [Example 58, N-((1-amino-5,7-dimethylisoquinolin-6-yl)methyl)-1-((1-methyl-1H-benzo[d][1,2,3]triazol-5-yl)methyl)-1H-pyrazole-4-carboxamide] belongs 0.001 to 0.01 µM.
Still for that read-out and setting: to `Cc1cc2c(N)nccc2c(C)c1CNC(=O)c1cnn(Cc2ccc(CC(=O)N(C)C3CC3)cc2)c1` [Example 224, N-((1-amino-5,7-dimethylisoquinolin-6-yl)methyl)-1-(4-(2-(cyclopropyl(methyl)amino)-2-oxoethyl)benzyl)-1H-pyrazole-4-carboxamide] belongs under 0.001 µM.

Staying with this assay, now noted: Primary Dose Response Assay: Average EC50, 500 pM activated kallikrein; 300 μM PFR-AMC; 30 min preincubation; 10 min room temperature; pH 7.5.
The molecule `Cc1cc2c(N)nccc2c(C)c1CNc1cc(NCc2ccc(CC(=O)N(C)C)cc2)ncn1` [Example 375, 2-(4-(((6-(((1-amino-5,7-dimethylisoquinolin-6-yl)methyl)amino)pyrimidin-4-yl)amino)methyl)phenyl)-N,N-dimethylacetamide] came in with an EC50 of under 0.001 µM.

These data come from US20260374754A1, “N-((ISOQUINOLIN-6-YL)METHYL)-1H-PYRAZOLE-4-CARBOXAMIDE DERIVATIVES AS PLASMA KALLIKREIN INHIBITORS FOR THE TREATMENT OF HEREDITARY ANGIODEMA” (Takeda Pharmaceutical Company Limited, priority 2022, published 2026).
